Experimental findings from PubChem BioAssay (NCI) are described below.

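Exposure lasted 48 hours, with cells grown in 96-well plates and compounds tested at five concentrations. Definition used: TGI = concentration required for complete inhibition of growth.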 Bounds are passed on as bounds.

The test system of one assay is NCI-H226 lung. The assay is described as follows: NCI tumour cell line growth inhibition, 48 h.
As to `CCCCCCCCCCCCCP(=O)(O)O`, the TGI is over 100 µM.

The next assay deals with NCI-H23 lung. The assay is described as follows: NCI tumour cell line growth inhibition, 48 h.
Regarding `CN(C)CCNC(=O)c1cccc2c(=O)c3ccccc3oc12`, the TGI was over 100 µM.

As to `CCCCCCCCCCCCCP(=O)(O)O`, the TGI was over 100 µM.

`O=C(O)CCC1CCc2cccc(O)c2C1=O` (stereo not drawn) came in with a TGI of over 100 µM.

The next assay concerns NCI-H460 lung. The assay is described as follows: NCI tumour cell line growth inhibition, 48 h.
The molecule `Cc1ccc(S(=O)(=O)N/N=C2\CCCCC23CCC(=O)NC3)cc1` (stereo not drawn) returned a TGI of over 100 µM.

Molecule `CN(C)CCNC(=O)c1cccc2c(=O)c3ccccc3oc12` returned a TGI of over 79.5 µM.

With `CCCCCCCCCCCCCP(=O)(O)O`, the TGI was over 100 µM.

As to `O=C(O)CCC1CCc2cccc(O)c2C1=O` (stereo not drawn), the TGI was over 100 µM.

The next assay relates to NCI-H522 lung. The assay is described as follows: NCI tumour cell line growth inhibition, 48 h.
`Cc1ccc(S(=O)(=O)N/N=C2\CCCCC23CCC(=O)NC3)cc1` (stereo not drawn) came in with a TGI of over 100 µM.

As for `CCCCCCCCCCCCCP(=O)(O)O`, the TGI was over 100 µM.

The test system of another assay is NCI/ADR-RES ovarian. The assay is described as follows: NCI tumour cell line growth inhibition, 48 h.
Molecule `CN(C)CCNC(=O)c1cccc2c(=O)c3ccccc3oc12` gave a TGI of over 79.9 µM.

The subject of another assay is OVCAR-3 ovarian. The assay is described as follows: NCI tumour cell line growth inhibition, 48 h.
Consider `Cc1ccc(S(=O)(=O)N/N=C2\CCCCC23CCC(=O)NC3)cc1` (stereo not drawn), for which the TGI was over 100 µM.

In the case of `CN(C)CCNC(=O)c1cccc2c(=O)c3ccccc3oc12`, the TGI was over 100 µM.

In turn, `CCCCCCCCCCCCCP(=O)(O)O` yielded a TGI of over 100 µM.

For a further assay, the system named is OVCAR-4 ovarian. The assay is described as follows: NCI tumour cell line growth inhibition, 48 h.
Take `Cc1ccc(S(=O)(=O)N/N=C2\CCCCC23CCC(=O)NC3)cc1` (stereo not drawn): the TGI was over 100 µM.

The molecule `CN(C)CCNC(=O)c1cccc2c(=O)c3ccccc3oc12` yielded a TGI of over 90.5 µM.

The molecule `CCCCCCCCCCCCCP(=O)(O)O` came in with a TGI of over 100 µM.

Turning to `O=C(O)CCC1CCc2cccc(O)c2C1=O` (stereo not drawn), the TGI is over 100 µM.

In the next assay the test system is OVCAR-5 ovarian. The assay is described as follows: NCI tumour cell line growth inhibition, 48 h.
As for `CN(C)CCNC(=O)c1cccc2c(=O)c3ccccc3oc12`, the TGI is over 82.9 µM.

`CCCCCCCCCCCCCP(=O)(O)O` returned a TGI of over 100 µM.

In a further assay the test system is OVCAR-8 ovarian. The assay is described as follows: NCI tumour cell line growth inhibition, 48 h.
Consider `Cc1ccc(S(=O)(=O)N/N=C2\CCCCC23CCC(=O)NC3)cc1` (stereo not drawn), for which the TGI was over 100 µM.

Consider `CN(C)CCNC(=O)c1cccc2c(=O)c3ccccc3oc12`, for which the TGI is over 83.5 µM.

With `CCCCCCCCCCCCCP(=O)(O)O`, the TGI is over 100 µM.

The next assay relates to P388 leukemia. The assay is described as follows: NCI tumour cell line growth inhibition, 48 h.
As for `CN(C)CCNC(=O)c1cccc2c(=O)c3ccccc3oc12`, the TGI came out at 52.2 µM.

Another assay relates to P388/ADR leukemia. The assay is described as follows: NCI tumour cell line growth inhibition, 48 h.
`CN(C)CCNC(=O)c1cccc2c(=O)c3ccccc3oc12` gave a TGI of 73.2 µM.

In a further assay the test system is RPMI-8226 leukemia. The assay is described as follows: NCI tumour cell line growth inhibition, 48 h.
The molecule `Cc1ccc(S(=O)(=O)N/N=C2\CCCCC23CCC(=O)NC3)cc1` (stereo not drawn) gave a TGI of over 100 µM.

`CN(C)CCNC(=O)c1cccc2c(=O)c3ccccc3oc12` returned a TGI of over 87.1 µM.

Molecule `O=C(O)CCC1CCc2cccc(O)c2C1=O` (stereo not drawn) showed a TGI of over 100 µM.

Another assay deals with RXF 393 renal. The assay is described as follows: NCI tumour cell line growth inhibition, 48 h.
Turning to `Cc1ccc(S(=O)(=O)N/N=C2\CCCCC23CCC(=O)NC3)cc1` (stereo not drawn), the TGI is over 100 µM.

As to `CN(C)CCNC(=O)c1cccc2c(=O)c3ccccc3oc12`, the TGI was over 100 µM.

Consider `CCCCCCCCCCCCCP(=O)(O)O`, for which the TGI was over 100 µM.

Molecule `O=C(O)CCC1CCc2cccc(O)c2C1=O` (stereo not drawn) showed a TGI of over 100 µM.

In the next assay the test system is RXF-631 renal. The assay is described as follows: NCI tumour cell line growth inhibition, 48 h.
With `Cc1ccc(S(=O)(=O)N/N=C2\CCCCC23CCC(=O)NC3)cc1` (stereo not drawn), the TGI was over 100 µM.

`CCCCCCCCCCCCCP(=O)(O)O` showed a TGI of over 100 µM.

With `O=C(O)CCC1CCc2cccc(O)c2C1=O` (stereo not drawn), the TGI is over 100 µM.

The test system of a further assay is SF-268 CNS. The assay is described as follows: NCI tumour cell line growth inhibition, 48 h.
Take `Cc1ccc(S(=O)(=O)N/N=C2\CCCCC23CCC(=O)NC3)cc1` (stereo not drawn): the TGI is over 100 µM.

In the case of `CN(C)CCNC(=O)c1cccc2c(=O)c3ccccc3oc12`, the TGI was over 100 µM.

For `CCCCCCCCCCCCCP(=O)(O)O`, the TGI is over 100 µM.

Another assay has as its system SF-295 CNS. The assay is described as follows: NCI tumour cell line growth inhibition, 48 h.
Molecule `CN(C)CCNC(=O)c1cccc2c(=O)c3ccccc3oc12` had a TGI of 98.9 µM.

Turning to `CCCCCCCCCCCCCP(=O)(O)O`, the TGI was over 100 µM.

In the next assay the test system is SF-539 CNS. The assay is described as follows: NCI tumour cell line growth inhibition, 48 h.
As to `Cc1ccc(S(=O)(=O)N/N=C2\CCCCC23CCC(=O)NC3)cc1` (stereo not drawn), the TGI was over 100 µM.

Turning to `CN(C)CCNC(=O)c1cccc2c(=O)c3ccccc3oc12`, the TGI was over 100 µM.

The molecule `CCCCCCCCCCCCCP(=O)(O)O` returned a TGI of over 100 µM.

In the case of `O=C(O)CCC1CCc2cccc(O)c2C1=O` (stereo not drawn), the TGI is over 100 µM.

Another assay deals with SK-MEL-2 melanoma. The assay is described as follows: NCI tumour cell line growth inhibition, 48 h.
`Cc1ccc(S(=O)(=O)N/N=C2\CCCCC23CCC(=O)NC3)cc1` (stereo not drawn) gave a TGI of over 100 µM.

Consider `CN(C)CCNC(=O)c1cccc2c(=O)c3ccccc3oc12`, for which the TGI is 98.9 µM.

With `CCCCCCCCCCCCCP(=O)(O)O`, the TGI is over 100 µM.

The next assay deals with SK-MEL-28 melanoma. The assay is described as follows: NCI tumour cell line growth inhibition, 48 h.
In turn, `Cc1ccc(S(=O)(=O)N/N=C2\CCCCC23CCC(=O)NC3)cc1` (stereo not drawn) yielded a TGI of over 100 µM.
